From paper PMC7504092, “Synthesis and Antiplasmodial Evaluation of 4-Carboxamido- and 4-Alkoxy-2-Trichloromethyl Quinazolines” (Molecules, 2020)
Like-named read-outs stand apart in the source and are kept apart here.

What was measured:
K1 P. falciparum strain = test: In vitro antiplasmodial evaluation (SYBR Green I fluorescence-based method); type: cell-based; conditions: for EC50: read-out: PfK1 EC50; for SI (selectivity index = CC50/EC50): CC50 HepG2 / EC50 PfK1; for IC50: K1, Figures 2 and 3, read-out: IC50 P. falci. K1; for activity against P. falciparum (in words): K1 strain
Protocol: It was maintained in continuous culture as described previously by Trager and Jensen. […] Parasitemia was maintained daily at between 1 and 3%. The P. falciparum drug susceptibility test was carried out by comparing quantities of DNA in treated and control cultures of parasite in human erythrocytes according to an SYBR Green I fluorescence-based method using a 96-well fluorescence plate reader. […] Duplicate assays were performed for each sample. After incubation, plates were frozen at -20 °C for 24 h. […] Fifteen μL of each sample were transferred to 96-well flat bottom non-sterile black plates (Greiner Bio-one) already containing 15 μL of the SYBR Green I lysis buffer (2X SYBR Green I, 20 mM Tris base pH 7.5, 20 mM EDTA, 0.008% w/v saponin, 0.08% w/v Triton X-100).

[1] = In vitro cytotoxicity evaluation (MTT); type: cell-based; conditions: human
Protocol: Triplicate assays were performed for each sample. Each plate-well was then microscope-examined for possible precipitate formation before the medium was aspirated from the wells. 100 μL of MTT (3-(4,5-dimethyl-2-thiazolyl)-2,5-diphenyl-2H-tetrazolium bromide) solution (0.5 mg/mL in medium without FBS) were then added to each well. […] After this time, the MTT solution was removed and DMSO (100 μL) was added to dissolve the resulting blue formazan crystals. Plates were shaken vigorously (700 rpm) for 10 min. The absorbance was measured at 570 nm with 630 nm as reference wavelength using a BIO-TEK ELx808 Absorbance Microplate Reader (LabX, Midland, ON, Canada). DMSO was used as blank and doxorubicin (purchased from Sigma Aldrich) as positive control. Cell viability was calculated as percentage of control (cells incubated without compound). […] CC50 values represent the mean value calculated from three independent experiments.

[2] = Plasmodium falciparum, K1, 72 h, multi-resistant K1 P. falciparum strain, 72 h incubation
[3] = multi-resistant K1 P. falciparum strain, 72 h incubation

| SMILES | EC50 (K1 P. falciparum strain; [2]) [µM] | melting point [°C] | EC50 (K1 P. falciparum strain; [3]) [µM] | IC50 (K1 P. falciparum strain; Plasmodium falciparum) [µM] | EC50 (K1 P. falciparum strain; Plasmodium falciparum, K1, 72 h) [µM] | CC50 at 72 h [1] [µM] | SI (selectivity index = CC50/EC50) (K1 P. falciparum strain) | activity against P. falciparum (in words) (K1 P. falciparum strain) |
| --- | --- | --- | --- | --- | --- | --- | --- | --- |
| CCN(CC)CCCC(C)Nc1ccnc2cc(Cl)ccc12 (stereo not shown) [Chloroquine, reference compound] |  |  |  |  | 0.8 |  |  |  |
| COc1cccc2c1C(=O)c1c(O)c3c(c(O)c1C2=O)C[C@@](O)(C(=O)CO)C[C@@H]3O[C@H]1C[C@H](N)[C@H](O)[C@H](C)O1 [Doxorubicin, reference compound] |  |  |  |  |  | 0.2 |  |  |
| C[C@H]1c2cccc(O)c2C(=O)C2=C(O)[C@]3(O)C(=O)C(C(N)=O)=C(O)[C@@H](N(C)C)[C@@H]3[C@@H](O)[C@@H]21 [Doxycycline, reference compound] | 6 |  |  |  |  | 20 |  |  |
| O=C(c1ccc(Cl)cc1)N(C(=O)c1ccc(Cl)cc1)c1nc(C(Cl)(Cl)Cl)nc2ccccc12 [Molecule 3, 4-Chloro-N-(4-Chlorobenzoyl)-N-(2-Trichloromethylquinazolin-4-yl)benzamide] | 1.46 | 218.2 |  |  |  | 20 | 13.7 |  |
| O=C(Nc1nc(C(Cl)(Cl)Cl)nc2ccccc12)c1cccc([N+](=O)[O-])c1 [Molecule 7, 3-Nitro-N-(2-Trichloromethylquinazolin-4-yl)benzamide] | 3.37 |  |  |  |  | 24.8 |  |  |
| CC(C)C(=O)Nc1nc(C(Cl)(Cl)Cl)nc2ccccc12 [Molecule 22, N-(2-Trichloromethylquinazolin-4-yl)isobutyramide] | 3.5 | 161 |  |  |  | > 31.2 | >9.0 |  |
| CC(C)(C)C(=O)Nc1nc(C(Cl)(Cl)Cl)nc2ccccc12 [Molecule 23, N-(2-Trichloromethylquinazolin-4-yl)pivalamide] | 1.8 | 157 |  |  |  | 34.9 | 19.4 |  |
| O=C(Nc1nc(C(Cl)(Cl)Cl)nc2ccccc12)C1CCCCC1 [Molecule 25, N-(2-Trichloromethylquinazolin-4-yl)cyclohexanecarboxamide] | 2.4 | 214 |  |  |  | > 15.6 | >6.5 |  |
| CCCCOc1nc(C(Cl)(Cl)Cl)nc2ccccc12 [Molecule 29, 4-Butoxy-2-Trichloromethylquinazoline] | 5.8 |  |  |  |  | 82.4 | 14.2 |  |
| ClCCCCOc1nc(C(Cl)(Cl)Cl)nc2ccccc12 [Molecule 38, 4-(4-Chlorobutoxy)-2-Trichloromethylquinazoline] | 4.3 |  |  |  |  | 50.5 | 11.7 |  |
| ClC(Cl)(Cl)c1nc(OCCN2CCCCC2)c2ccccc2n1 [Molecule 43, 4-[2-(Piperidin-1-yl)ethoxy]-2-Trichloromethylquinazoline] | 1.4 |  |  |  |  | 23.4 | 16.5 |  |
| ClC(Cl)(Cl)c1nc(OCCN2CCCC2)c2ccccc2n1 [Molecule 44, 4-[2-(Pyrrolidin-1-yl)ethoxy]-2-Trichloromethylquinazoline] | ≤ 2 |  | 1.3 |  |  | 43.7 |  |  |
| COc1ccc(C(=O)Nc2nc(C)nc3ccccc23)cc1 [Molecule 45, 4-methoxy-N-(2-Methylquinazolin-4-yl)benzamide] |  |  |  | > 50 |  |  |  | inactive |
| COc1ccc(C(=O)Nc2nc(C(F)(F)F)nc3ccccc23)cc1 [Molecule 46, 4-methoxy-N-(2-Trifluoromethylquinazolin-4-yl)benzamide] |  | 190 |  | > 50 |  |  |  | inactive |
| CCN(CC)CCOc1nc(C)nc2ccccc12 [Molecule 47, N,N-Diethyl-2-[(2-Methylquinazolin-4-yl)oxy]ethanamine] |  | 230 |  | > 50 |  |  |  | inactive |
| CCN(CC)CCOc1nc(C(F)(F)F)nc2ccccc12 [Molecule 48, N,N-Diethyl-2-[(2-Trifluoromethylquinazolin-4-yl)oxy]ethan-1-Amine] |  |  |  | > 50 |  |  |  | inactive |
| CCN(CC)CCOc1ncnc2ccccc12 [Molecule 49, N,N-Diethyl-2-(Quinazolin-4-yloxy)ethanamine] |  |  |  | > 50 |  |  |  | inactive |

The next lines start with results.

| EC50 (K1 P. falciparum strain; [2]) [µM] | melting point [°C] | EC50 (K1 P. falciparum strain; [3]) [µM] | IC50 (K1 P. falciparum strain; Plasmodium falciparum) [µM] | SMILES | EC50 (K1 P. falciparum strain; Plasmodium falciparum, K1, 72 h) [µM] | CC50 at 72 h [1] [µM] | SI (selectivity index = CC50/EC50) (K1 P. falciparum strain) | activity against P. falciparum (in words) (K1 P. falciparum strain) |
| --- | --- | --- | --- | --- | --- | --- | --- | --- |
|  | 199 |  |  | O=C(Nc1nc(C(Cl)(Cl)Cl)nc2ccccc12)c1ccc(Cl)cc1 [Molecule 2, 4-Chloro-N-(2-Trichloromethylquinazolin-4-yl)benzamide] |  | 21 |  |  |
| 1.76 | 183 |  |  | O=C(Nc1nc(C(Cl)(Cl)Cl)nc2ccccc12)c1ccccc1 [Molecule 5, N-(2-Trichloromethylquinazolin-4-yl)benzamide] |  | 24.2 | 13.8 |  |
| 4.18 | 214 |  |  | O=C(Nc1nc(C(Cl)(Cl)Cl)nc2ccccc12)c1ccc([N+](=O)[O-])cc1 [Molecule 6, 4-Nitro-N-(2-Trichloromethylquinazolin-4-yl)benzamide] |  | 22.1 | 5.3 |  |
| ≤ 2 | 166 | 1.34 |  | O=C(Nc1nc(C(Cl)(Cl)Cl)nc2ccccc12)c1ccc(F)cc1 [Molecule 9, 4-Fluoro-N-(2-Trichloromethylquinazolin-4-yl)benzamide] |  | 29.4 |  |  |
| 2.86 | 152 |  |  | O=C(Nc1nc(C(Cl)(Cl)Cl)nc2ccccc12)c1cccc(F)c1 [Molecule 10, 3-Fluoro-N-(2-Trichloromethylquinazolin-4-yl)benzamide] |  | 19.9 | 6.9 |  |
| 1.54 |  |  |  | O=C(Nc1nc(C(Cl)(Cl)Cl)nc2ccccc12)c1cccc(Cl)c1 [Molecule 12, 3-Chloro-N-(2-Trichloromethylquinazolin-4-yl)benzamide] |  | 16.4 |  |  |
| 9.04 |  |  |  | O=C(Nc1nc(C(Cl)(Cl)Cl)nc2ccccc12)c1ccccc1Cl [Molecule 13, 2-Chloro-N-(2-Trichloromethylquinazolin-4-yl)benzamide] |  | 27.3 |  |  |
| 1.3 |  |  |  | O=C(Nc1nc(C(Cl)(Cl)Cl)nc2ccccc12)c1ccc(Br)cc1 [Molecule 14, 4-Bromo-N-(2-Trichloromethylquinazolin-4-yl)benzamide] |  | 19.5 |  |  |
| 3.5 |  |  |  | N#Cc1ccc(C(=O)Nc2nc(C(Cl)(Cl)Cl)nc3ccccc23)cc1 [Molecule 15, 4-Cyano-N-(2-Trichloromethylquinazolin-4-yl)benzamide] |  | 31.4 |  |  |
|  |  |  | 0.94 | COc1ccc(C(=O)Nc2nc(C(Cl)(Cl)Cl)nc3ccccc23)cc1 [Molecule 16, 4-Methoxy-N-(2-Trichloromethylquinazolin-4-yl)benzamide] |  | 27.7 |  |  |
| 3.9 | 208 |  |  | O=C(Nc1nc(C(Cl)(Cl)Cl)nc2ccccc12)c1cccnc1 [Molecule 18, N-(2-Trichloromethylquinazolin-4-yl)nicotinamide] |  | 72.9 | 18.7 |  |
| 1.8 | 151 |  |  | O=C(Nc1nc(C(Cl)(Cl)Cl)nc2ccccc12)c1ccncc1 [Molecule 19, N-(2-Trichloromethylquinazolin-4-yl)isonicotinamide] |  | 22.8 | 12.7 |  |
